The assay concerns intracellular procollagen. Put plainly: Procollagen ELISA (PIPc kit) on collected lysis medium. Type of assay: cell-based, human. Particulars: for Procoll Mean (intracellular procollagen) / Ratio: Procoll/DNA Mean / Stat Mean (Procoll/DNA, control = 100.00): lysis medium. The protocol: The method described in example 1 was applied and the culture medium and lysis medium collected were analysed. On the collected lysis medium, a procollagen assay (PIPc kit, TAKARA) by ELISA is carried out for determining the amount of intracellular procollagen (Table 4.2). A DNA assay (Picogreen kit, Invitrogen) was also carried out for rationalizing all of the measurements in each well to the quantity of viable cells. The amounts of collagen and procollagen measured were rationalized to the amount of DNA present in each well.
A general note: ELISA stands for enzyme-linked immunosorbent assay.

With `O=C1O[C@H]([C@@H](O)CO)C(O)=C1O` [Ascorbic acid, ascorbic acid], the “procollagen concentration in the intracellular compartment” value (Example 4) is on record as “less than that observed with the untreated control”. Further, the “Procoll Mean (intracellular procollagen)” value stood at 116 ng/mL (ascorbic acid 0.1 μM); 108 ng/mL (ascorbic acid 1 μM); 114 ng/mL (ascorbic acid 10 μM); 60 ng/mL (ascorbic acid 50 μM); 66 ng/mL (ascorbic acid 100 μM). In addition, the “Ratio: Procoll/DNA Mean” value runs as follows: (ascorbic acid 0.1 μM) 0.37; (ascorbic acid 1 μM) 0.36; (ascorbic acid 10 μM) 0.41; (ascorbic acid 50 μM) 0.22; (ascorbic acid 100 μM) 0.23. The “Stat Mean (Procoll/DNA, control = 100.00)” value (ascorbic acid 0.1 μM) was 102.85; the “Stat Mean (Procoll/DNA, control = 100.00)” value (ascorbic acid 1 μM) turned out to be 100.76; the “Stat Mean (Procoll/DNA, control = 100.00)” value (ascorbic acid 10 μM) worked out at 108.02; the “Stat Mean (Procoll/DNA, control = 100.00)” value (ascorbic acid 50 μM) was 60.83; the “Stat Mean (Procoll/DNA, control = 100.00)” value (ascorbic acid 100 μM) turned out to be 63.69.

These data come from patent publication US20130017537A1, “METHOD OF IN-VITRO IMMUNOASSAY” (BASF Beauty Care Solutions France S.A.S., priority 2011, published 2013).
